Measured values taken from ChEMBL document CHEMBL1143824, “National survey on the susceptibility of Bacteroides fragilis group: report and analysis of trends in the United States from 1997 to 2004” (2007).
Values after ≈ are worked out from the molar mass of the structure shown.

Assays:
Type in all cases: functional
Bacteroides caccae [1] = assay: Antimicrobial activity against Bacteroides caccae assessed as percent resistant isolates
Bacteroides eggerthii [2] = assay: Antimicrobial activity against Bacteroides eggerthii isolates by agar dilution method
[3] = system: Bacteroides thetaiotaomicron; assay: Antimicrobial activity against Bacteroides thetaiotaomicron assessed as percent resistant isolates
Bacteroides uniformis [4] = assay: Antimicrobial activity against Bacteroides uniformis assessed as percent resistant isolates
Bacteroides stercoris [5] = assay: Antimicrobial activity against Bacteroides stercoris isolates by agar dilution method
Phocaeicola vulgatus [6] = assay: Antimicrobial activity against Bacteroides vulgatus assessed as percent resistant isolates
Parabacteroides merdae [7] = assay: Antimicrobial activity against Bacteroides merdae assessed as percent resistant isolates
[8] = system: Parabacteroides distasonis; assay: Antimicrobial activity against Bacteroides distasonis assessed as percent resistant isolates
Bacteroides caccae [9] = assay: Antimicrobial activity against Bacteroides caccae isolates by agar dilution method
Phocaeicola vulgatus [10] = assay: Antimicrobial activity against Bacteroides vulgatus isolates by agar dilution method
Bacteroides stercoris [11] = assay: Antimicrobial activity against Bacteroides stercoris assessed as percent resistant isolates
[12] = system: Bacteroides thetaiotaomicron; assay: Antimicrobial activity against Bacteroides thetaiotaomicron isolates by agar dilution method
Bacteroides eggerthii [13] = assay: Antimicrobial activity against Bacteroides eggerthii assessed as percent resistant isolates
Bacteroides fragilis [14] = assay: Antimicrobial activity against Bacteroides fragilis isolates by agar dilution method
Bacteroides fragilis [15] = assay: Antimicrobial activity against Bacteroides fragilis assessed as percent resistant isolates
[16] = system: Parabacteroides distasonis; assay: Antimicrobial activity against Bacteroides distasonis isolates by agar dilution method
Parabacteroides merdae [17] = assay: Antimicrobial activity against Bacteroides merdae isolates by agar dilution method
Bacteroides uniformis [18] = assay: Antimicrobial activity against Bacteroides uniformis isolates by agar dilution method
Bacteroides ovatus [19] = assay: Antimicrobial activity against Bacteroides ovatus assessed as percent resistant isolates
Bacteroides ovatus [20] = assay: Antimicrobial activity against Bacteroides ovatus isolates by agar dilution method

Compound | Activity (Bacteroides caccae [1]) | MIC (Bacteroides eggerthii [2]) | MIC90 (Bacteroides eggerthii [2]) | Activity [3] | Activity (Bacteroides uniformis [4]) | MIC (Bacteroides stercoris [5]) | MIC90 (Bacteroides stercoris [5]) | Activity (Phocaeicola vulgatus [6]) | Activity (Parabacteroides merdae [7]) | Activity [8] | MIC (Bacteroides caccae [9]) | MIC90 (Bacteroides caccae [9]) | MIC (Phocaeicola vulgatus [10]) | MIC90 (Phocaeicola vulgatus [10]) | Activity (Bacteroides stercoris [11]) | MIC [12] | MIC90 [12] | Activity (Bacteroides eggerthii [13]) | MIC (Bacteroides fragilis [14]) | MIC90 (Bacteroides fragilis [14]) | further results
C[C@@H](O)[C@H]1C(=O)N2C(C(=O)O)=C(S[C@@H]3CN[C@H](C(=O)N(C)C)C3)[C@H](C)[C@H]12 [MEROPENEM] | 0.5% | 0.4 mg/L (≈ 1.04 µM) | 1 mg/L (≈ 2.61 µM) | 0.1% | 0.5% | 0.4 mg/L (≈ 1.04 µM) | 1 mg/L (≈ 2.61 µM) | 0% | 0.5% | 1.1% | 0.4 mg/L (≈ 1.04 µM) | 1 mg/L (≈ 2.61 µM) | 0.47 mg/L (≈ 1.23 µM) | 1 mg/L (≈ 2.61 µM) | 0.5% | 0.47 mg/L (≈ 1.23 µM) | 1 mg/L (≈ 2.61 µM) | 0.5% | 0.38 mg/L (≈ 0.991 µM) | 1 mg/L (≈ 2.61 µM) | Activity (Bacteroides fragilis [15]): 1%; MIC90 [16]: 2 mg/L (≈ 5.22 µM); MIC (Parabacteroides merdae [17]): 0.4 mg/L (≈ 1.04 µM); MIC90 (Parabacteroides merdae [17]): 1 mg/L (≈ 2.61 µM); MIC (Bacteroides uniformis [18]): 0.41 mg/L (≈ 1.07 µM); MIC90 (Bacteroides uniformis [18]): 1 mg/L (≈ 2.61 µM)
CN(C)c1cc(NC(=O)CNC(C)(C)C)c(O)c2c1C[C@H]1C[C@H]3[C@H](N(C)C)C(O)=C(C(N)=O)C(=O)[C@@]3(O)C(O)=C1C2=O [TIGECYCLINE] | 7.2% | 1.51 mg/L (≈ 2.58 µM) | 8 mg/L (≈ 13.7 µM) | 3.6% | 3.4% | 1.51 mg/L (≈ 2.58 µM) | 8 mg/L (≈ 13.7 µM) | 1.6% | 7.2% | 2.1% | 1.51 mg/L (≈ 2.58 µM) | 8 mg/L (≈ 13.7 µM) | 1.05 mg/L (≈ 1.79 µM) | 4 mg/L (≈ 6.83 µM) | 7.2% | 1.57 mg/L (≈ 2.68 µM) | 8 mg/L (≈ 13.7 µM) | 7.2% | 1.59 mg/L (≈ 2.71 µM) | 8 mg/L (≈ 13.7 µM) | Activity (Bacteroides ovatus [19]): 3.3%; MIC (Bacteroides ovatus [20]): 1.52 mg/L (≈ 2.6 µM); MIC90 (Bacteroides ovatus [20]): 8 mg/L (≈ 13.7 µM); Activity (Bacteroides fragilis [15]): 5.1%; MIC [16]: 2.09 mg/L (≈ 3.57 µM); MIC90 [16]: 8 mg/L (≈ 13.7 µM); MIC (Parabacteroides merdae [17]): 1.51 mg/L (≈ 2.58 µM); MIC90 (Parabacteroides merdae [17]): 8 mg/L (≈ 13.7 µM); MIC (Bacteroides uniformis [18]): 0.77 mg/L (≈ 1.31 µM); MIC90 (Bacteroides uniformis [18]): 4 mg/L (≈ 6.83 µM)
C[C@@H](O)[C@H]1C(=O)N2C(C(=O)O)=C(SC3CNC(C(=O)Nc4cccc(C(=O)O)c4)C3)[C@H](C)[C@H]12 (single isomer, unassigned) [ERTAPENEM] | 0.5% | 1.03 mg/L (≈ 2.17 µM) | 4 mg/L (≈ 8.41 µM) | 0.4% | 0.5% | 1.03 mg/L (≈ 2.17 µM) | 4 mg/L (≈ 8.41 µM) | 0.3% | 0.5% | 1.5% | 1.03 mg/L (≈ 2.17 µM) | 4 mg/L (≈ 8.41 µM) | 0.82 mg/L (≈ 1.72 µM) | 2 mg/L (≈ 4.21 µM) | 0.5% | 1.69 mg/L (≈ 3.55 µM) | 4 mg/L (≈ 8.41 µM) | 0.5% | 0.79 mg/L (≈ 1.66 µM) | 2 mg/L (≈ 4.21 µM) | Activity (Bacteroides ovatus [19]): 0.6%; MIC (Bacteroides ovatus [20]): 1.58 mg/L (≈ 3.32 µM); MIC90 (Bacteroides ovatus [20]): 4 mg/L (≈ 8.41 µM); Activity (Bacteroides fragilis [15]): 1.4%; MIC [16]: 1.77 mg/L (≈ 3.72 µM); MIC90 [16]: 4 mg/L (≈ 8.41 µM); MIC (Parabacteroides merdae [17]): 1.03 mg/L (≈ 2.17 µM); MIC90 (Parabacteroides merdae [17]): 4 mg/L (≈ 8.41 µM); MIC (Bacteroides uniformis [18]): 0.88 mg/L (≈ 1.85 µM); MIC90 (Bacteroides uniformis [18]): 2 mg/L (≈ 4.21 µM)
COc1c(N2C[C@@H]3CCCN[C@@H]3C2)c(F)cc2c(=O)c(C(=O)O)cn(C3CC3)c12 [MOXIFLOXACIN] | 36.4% | 3.85 mg/L (≈ 9.59 µM) | 32 mg/L (≈ 79.7 µM) | 26.3% | 38.6% | 3.85 mg/L (≈ 9.59 µM) | 32 mg/L (≈ 79.7 µM) | 54.7% | 36.4% | 29.2% | 3.85 mg/L (≈ 9.59 µM) | 32 mg/L (≈ 79.7 µM) | 7.92 mg/L (≈ 19.7 µM) | 64 mg/L (≈ 159 µM) | 36.4% | 3.71 mg/L (≈ 9.24 µM) | 32 mg/L (≈ 79.7 µM) | 36.4% | 1.83 mg/L (≈ 4.56 µM) | 8 mg/L (≈ 19.9 µM) | Activity (Bacteroides ovatus [19]): 38.3%; MIC (Bacteroides ovatus [20]): 5.49 mg/L (≈ 13.7 µM); MIC90 (Bacteroides ovatus [20]): 32 mg/L (≈ 79.7 µM); Activity (Bacteroides fragilis [15]): 27.3%; MIC [16]: 2.32 mg/L (≈ 5.78 µM); MIC90 [16]: 16 mg/L (≈ 39.9 µM); MIC (Parabacteroides merdae [17]): 3.85 mg/L (≈ 9.59 µM); MIC90 (Parabacteroides merdae [17]): 32 mg/L (≈ 79.7 µM); MIC (Bacteroides uniformis [18]): 5.57 mg/L (≈ 13.9 µM); MIC90 (Bacteroides uniformis [18]): 32 mg/L (≈ 79.7 µM)
C[C@@H](O)[C@H]1C(=O)N2C(C(=O)O)=C(SCCNC=N)C[C@H]12 [IMIPENEM ANHYDROUS] | 0% | 0.35 mg/L (≈ 1.17 µM) | 1 mg/L (≈ 3.34 µM) | 0.2% | 0.5% | 0.35 mg/L (≈ 1.17 µM) | 1 mg/L (≈ 3.34 µM) | 0.3% | 0% | 0.4% | 0.35 mg/L (≈ 1.17 µM) | 1 mg/L (≈ 3.34 µM) | 0.5 mg/L (≈ 1.67 µM) | 1 mg/L (≈ 3.34 µM) | 0% | 0.45 mg/L (≈ 1.5 µM) | 1 mg/L (≈ 3.34 µM) | 0% | 0.31 mg/L (≈ 1.04 µM) | 1 mg/L (≈ 3.34 µM) | Activity (Bacteroides ovatus [19]): 0.2%; MIC (Bacteroides ovatus [20]): 0.39 mg/L (≈ 1.3 µM); MIC90 (Bacteroides ovatus [20]): 1 mg/L (≈ 3.34 µM); Activity (Bacteroides fragilis [15]): 0.5%; MIC [16]: 0.95 mg/L (≈ 3.17 µM); MIC90 [16]: 2 mg/L (≈ 6.68 µM); MIC (Parabacteroides merdae [17]): 0.35 mg/L (≈ 1.17 µM); MIC90 (Parabacteroides merdae [17]): 1 mg/L (≈ 3.34 µM); MIC (Bacteroides uniformis [18]): 0.43 mg/L (≈ 1.44 µM); MIC90 (Bacteroides uniformis [18]): 1 mg/L (≈ 3.34 µM)
COC1(NC(=O)Cc2cccs2)C(=O)N2C(C(=O)O)=C(COC(N)=O)CS[C@@H]21 (single isomer, unassigned) [CEFOXITIN] | 10.9% | 17.6 mg/L (≈ 41.2 µM) | 64 mg/L (≈ 150 µM) | 16.8% | 7.5% | 17.6 mg/L (≈ 41.2 µM) | 64 mg/L (≈ 150 µM) | 0.3% | 10.9% | 29.9% | 17.6 mg/L (≈ 41.2 µM) | 64 mg/L (≈ 150 µM) | 10.5 mg/L (≈ 24.6 µM) | 32 mg/L (≈ 74.9 µM) | 10.9% | 29.5 mg/L (≈ 69 µM) | 64 mg/L (≈ 150 µM) | 10.9% | 15.4 mg/L (≈ 36.1 µM) | 32 mg/L (≈ 74.9 µM) | Activity (Bacteroides ovatus [19]): 17.2%; MIC (Bacteroides ovatus [20]): 27.2 mg/L (≈ 63.5 µM); MIC90 (Bacteroides ovatus [20]): 64 mg/L (≈ 150 µM); Activity (Bacteroides fragilis [15]): 5.2%; MIC [16]: 34.2 mg/L (≈ 80 µM); MIC90 [16]: 128 mg/L (≈ 299 µM); MIC (Parabacteroides merdae [17]): 17.6 mg/L (≈ 41.2 µM); MIC90 (Parabacteroides merdae [17]): 64 mg/L (≈ 150 µM); MIC (Bacteroides uniformis [18]): 12.9 mg/L (≈ 30.2 µM); MIC90 (Bacteroides uniformis [18]): 32 mg/L (≈ 74.9 µM)
CCC[C@@H]1C[C@@H](C(=O)NC([C@H](C)Cl)[C@H]2O[C@H](SC)[C@H](O)[C@@H](O)[C@H]2O)N(C)C1 (single isomer, unassigned) [CLINDAMYCIN] | 28.2% | 3.63 mg/L (≈ 8.54 µM) | 256 mg/L (≈ 602 µM) | 33.3% | 28.9% | 3.63 mg/L (≈ 8.54 µM) | 256 mg/L (≈ 602 µM) | 35.3% | 28.2% | 29.6% | 3.63 mg/L (≈ 8.54 µM) | 256 mg/L (≈ 602 µM) | 4.31 mg/L (≈ 10.1 µM) | 256 mg/L (≈ 602 µM) | 28.2% | 6.62 mg/L (≈ 15.6 µM) | 256 mg/L (≈ 602 µM) | 28.2% | 1.89 mg/L (≈ 4.45 µM) | 256 mg/L (≈ 602 µM) | Activity (Bacteroides ovatus [19]): 33.4%; MIC (Bacteroides ovatus [20]): 5.89 mg/L (≈ 13.9 µM); MIC90 (Bacteroides ovatus [20]): 256 mg/L (≈ 602 µM); Activity (Bacteroides fragilis [15]): 19.3%; MIC [16]: 4.51 mg/L (≈ 10.6 µM); MIC90 [16]: 256 mg/L (≈ 602 µM); MIC (Parabacteroides merdae [17]): 3.63 mg/L (≈ 8.54 µM); MIC90 (Parabacteroides merdae [17]): 256 mg/L (≈ 602 µM); MIC (Bacteroides uniformis [18]): 4.22 mg/L (≈ 9.93 µM); MIC90 (Bacteroides uniformis [18]): 256 mg/L (≈ 602 µM)
